Values of other authors in patent US9040513B2, “Process for preparing platinum-carbene complexes” (CENTRE NATIONAL DE LA RECHERCHE SCIENTIFIQUE, priority 2010, dated 2015).

Target: integrin αvβ3 (Homo sapiens, UniProt P05106+P06756)
Conditions: background statement

Sequence of integrin αvβ3 (P06756 31-889 limits assumed): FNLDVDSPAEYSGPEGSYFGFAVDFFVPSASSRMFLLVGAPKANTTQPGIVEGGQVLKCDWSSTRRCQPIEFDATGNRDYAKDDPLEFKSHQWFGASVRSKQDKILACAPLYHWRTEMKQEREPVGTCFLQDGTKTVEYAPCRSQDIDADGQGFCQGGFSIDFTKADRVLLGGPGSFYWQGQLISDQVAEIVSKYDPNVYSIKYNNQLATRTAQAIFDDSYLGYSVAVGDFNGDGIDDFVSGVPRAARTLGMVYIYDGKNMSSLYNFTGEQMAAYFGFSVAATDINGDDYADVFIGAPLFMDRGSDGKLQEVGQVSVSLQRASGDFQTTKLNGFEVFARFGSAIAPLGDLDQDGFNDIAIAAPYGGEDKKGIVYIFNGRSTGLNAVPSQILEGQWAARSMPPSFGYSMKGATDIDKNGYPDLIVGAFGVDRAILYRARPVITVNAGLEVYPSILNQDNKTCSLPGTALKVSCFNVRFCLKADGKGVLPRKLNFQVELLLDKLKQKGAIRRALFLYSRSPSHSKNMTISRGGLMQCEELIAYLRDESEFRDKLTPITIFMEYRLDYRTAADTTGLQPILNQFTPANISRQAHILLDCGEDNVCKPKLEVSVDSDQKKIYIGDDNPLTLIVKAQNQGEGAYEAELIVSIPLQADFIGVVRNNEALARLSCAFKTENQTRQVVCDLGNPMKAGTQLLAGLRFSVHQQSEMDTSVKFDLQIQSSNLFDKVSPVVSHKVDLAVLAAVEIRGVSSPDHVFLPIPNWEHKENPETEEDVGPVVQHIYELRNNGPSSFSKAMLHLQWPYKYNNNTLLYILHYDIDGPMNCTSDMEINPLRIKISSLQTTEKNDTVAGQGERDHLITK
Sequence of integrin αvβ3 (P06756 891-1048 partner limits assumed): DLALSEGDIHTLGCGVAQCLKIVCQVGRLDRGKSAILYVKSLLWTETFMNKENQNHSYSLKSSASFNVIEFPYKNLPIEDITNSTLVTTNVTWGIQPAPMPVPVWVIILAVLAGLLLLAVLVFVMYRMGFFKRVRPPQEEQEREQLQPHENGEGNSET
Sequence of integrin αvβ3 (P05106 27-788): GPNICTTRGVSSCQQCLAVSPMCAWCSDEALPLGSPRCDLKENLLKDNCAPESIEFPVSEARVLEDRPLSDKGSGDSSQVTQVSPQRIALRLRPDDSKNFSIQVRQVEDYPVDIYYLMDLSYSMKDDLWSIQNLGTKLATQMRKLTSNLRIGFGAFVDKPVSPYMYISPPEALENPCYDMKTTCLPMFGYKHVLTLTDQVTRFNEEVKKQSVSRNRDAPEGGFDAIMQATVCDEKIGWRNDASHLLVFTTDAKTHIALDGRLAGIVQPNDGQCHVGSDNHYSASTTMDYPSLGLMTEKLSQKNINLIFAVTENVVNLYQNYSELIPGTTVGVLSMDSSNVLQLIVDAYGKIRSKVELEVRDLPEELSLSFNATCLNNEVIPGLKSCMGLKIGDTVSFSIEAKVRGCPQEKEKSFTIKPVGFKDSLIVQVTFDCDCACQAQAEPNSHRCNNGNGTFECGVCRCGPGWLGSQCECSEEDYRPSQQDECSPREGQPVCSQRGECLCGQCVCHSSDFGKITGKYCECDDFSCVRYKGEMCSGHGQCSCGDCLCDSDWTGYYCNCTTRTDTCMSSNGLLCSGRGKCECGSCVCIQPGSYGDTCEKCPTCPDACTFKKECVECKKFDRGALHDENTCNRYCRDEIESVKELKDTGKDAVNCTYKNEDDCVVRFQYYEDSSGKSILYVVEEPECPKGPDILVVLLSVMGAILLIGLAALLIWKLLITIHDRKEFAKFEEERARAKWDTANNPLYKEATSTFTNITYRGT

affinity for integrin αvβ3: high affinity
Substance: cyclo(RGDfK)
